Experimental data from patent publication US5756107A, “Formulations and methods for reducing skin irritation” (Cosmederm Technologies, priority 1994, dated 1998).
“Also recorded” adds a separate entry of the source. Counter-ions that a name gives are not always drawn.

How the values were obtained:
[1] = tested on: subject's skin (skin irritation caused by lactic acid); assay: Lactic acid skin irritation challenge, double-blind randomized vehicle-controlled clinical trial (cumulative sensory irritation); format: in vivo, human; settings: for anti-irritant activity (in words): clinical trials, topical; for Percent Inhibition: representative subject panels, cation concentrations of 250 mM, vehicle 10% EtOH; for Percent Inhibition (average inhibition of cumulative irritation): cation salts at 250 mM, average over clinical tests of over 550 subjects, 7.5% lactic acid challenge
Experimental: The trials were conducted in a double blind, randomized, vehicle-controlled manner. Various formulations of the invention were tested in over 550 people.
Controls were performed by applying a corresponding formulation without any added cation to a contralateral portion of the subject's skin.
The following scaled scores were used for sensory assessment:
Cumulative irritation data are set forth in the following tables, and are depicted in FIGS. 9 and 10.

tooth sensitivity = settings: dentifrice, two to six weeks of continuous use; cited from earlier work
skin irritation = assay: Inhibition of skin irritation by salts in Elizabeth Arden Visible Difference Refining Toner; format: in vivo; settings: topical solution in Elizabeth Arden Visible Difference Refining Toner, various amounts
Experimental: Cation salts of the invention were formulated at various concentrations in various commercially available topical cosmetic products.
Topical solution forms of potassium nitrate, potassium chloride, potassium citrate, lithium sulfate, lithium nitrate and lithium acetate were prepared by combining various amounts of the named salts with Elizabeth Arden Visible Difference Refining Toner (an alcohol-containing solution).

exposed tooth nerves = settings: cited from earlier work
[2] = in vivo, po; cited from earlier work
brains of test animals = settings: applied directly to the brains of test animals; cited from earlier work
[3] = cited from earlier work
sodium channels = settings: cell membranes; cited from earlier work
exposed tooth pulp = exposed tooth pulp vs dentin; cited from earlier work

| Structure (SMILES) | anti-irritant activity (in words) [1] | Percent Inhibition [1] [%] | inhibition of skin irritation (in words) (skin irritation) | Percent Inhibition (average inhibition of cumulative irritation) [1] [%] | also measured |
| --- | --- | --- | --- | --- | --- |
| O=C(O)O [Lithium carbonate, lithium carbonate] | particularly active as anti-irritants | 69 |  |  |  |
| [Cl-].[Cl-].[Sr+2] [strontium chloride, reference compound] |  |  |  |  | tooth sensitivity (tooth sensitivity): reduce tooth sensitivity |
| [Cl-].[K+] [Potassium chloride] | overall efficacy of the subject formulations is evident; also recorded: particularly active as anti-irritants | 38 | effective to inhibit skin irritation | 40 |  |
| O=C([O-])CC(O)(CC(=O)[O-])C(=O)[O-].[K+].[K+].[K+] [potassium citrate] |  |  | effective to inhibit skin irritation |  |  |
| [Mg+2] [magnesium] |  |  |  |  | nerve electrical responses (exposed tooth nerves): may suppress nerve electrical responses; paralysis or depressed neural activity [2]: does not result in paralysis or depressed neural activity in healthy individuals; neural or synaptic activity (brains of test animals): depressed neural or synaptic activity, and even a sleep-like state; paralysis of skeletal muscles ([3]; magnesium ion, intravenously-administered magnesium sulfate): induces paralysis of skeletal muscles |
| O=[N+]([O-])[O-].[Li+] [Lithium nitrate] | particularly active as anti-irritants | 16 | effective to inhibit skin irritation | 20 |  |
| O=[N+]([O-])[O-].[K+] [Potassium nitrate] | particularly active as anti-irritants | 29 | effective to inhibit skin irritation | 30 | Percent Inhibition (cumulative irritation, dose-response) ([1]; 31 mM): -3%; Percent Inhibition (cumulative irritation, dose-response) ([1]; 125 mM): 18%; Percent Inhibition (cumulative irritation, dose-response) ([1]; 250 mM): 29%; Percent Inhibition (cumulative irritation, dose-response) ([1]; 500 mM): 60%; tooth sensitivity (tooth sensitivity): reduce tooth sensitivity |
| [Ca+2] [calcium] |  |  |  |  | nerve electrical responses (exposed tooth nerves): may suppress nerve electrical responses |
| O=S(=O)([O-])[O-].[K+].[K+] [Potassium sulfate] |  | 27 |  | 15 |  |
| O=C([O-])[C@H](O)[C@@H](O)[C@H](O)[C@H](O)CO.[K+] [Potassium gluconate] | particularly active as anti-irritants | 25 |  | 25 |  |
| O=S(=O)([O-])[O-].[Mg+2] [magnesium sulfate] |  |  |  |  | anesthesia or analgesia ([3]; intravenous): produces neither anesthesia nor even analgesia in humans |
| [Li+] [lithium (Li^+), lithium] | effective, when applied topically to the skin in appropriate concentrations and vehicles, to suppress the relatively severe stinging, burning, tingling, itching and/or erythema |  |  |  | block of sodium channels (sodium channels): block sodium channels on cell membranes; anti-irritant efficacy, effect of glycerol in the vehicle ([1]; preliminary studies, low concentration, vehicle includes glycerol): increased if the vehicle includes glycerol |
| O=S(=O)([O-])[O-].[Li+].[Li+] [Lithium sulfate] | overall efficacy of the subject formulations is evident; also recorded: particularly active as anti-irritants | 39 | effective to inhibit skin irritation | 35 | Percent Inhibition (cumulative irritation, dose-response) ([1]; 31 mM): 2%; Percent Inhibition (cumulative irritation, dose-response) ([1]; 62 mM): -7%; Percent Inhibition (cumulative irritation, dose-response) ([1]; 125 mM): 16%; Percent Inhibition (cumulative irritation, dose-response) ([1]; 250 mM): 27%; Percent Inhibition (cumulative irritation, dose-response) ([1]; 500 mM): 30% |
| [Cl-].[Li+] [Lithium chloride] |  | 6 |  | 0 |  |
| O=C(O)C(=O)O [Potassium oxalate, potassium oxalate] | particularly active as anti-irritants | 30 |  |  |  |
| CC(=O)O [Lithium acetate] | particularly active as anti-irritants | 67 | effective to inhibit skin irritation | 70 |  |
| [K+] [potassium (K^+), potassium] | effective, when applied topically to the skin in appropriate concentrations and vehicles, to suppress the relatively severe stinging, burning, tingling, itching and/or erythema |  |  |  | nerve electrical responses (exposed tooth nerves): evokes a transient electrical response followed by inhibition of excitability; pain on application to tooth pulp or dentin (exposed tooth pulp): pain is induced when potassium ion is applied to exposed tooth pulp but not when applied to the dentin |
